Each structure is given as a SMILES string. Counter-ions that a name gives are not always drawn. Some results are limits rather than exact numbers.

Data set [1] is described as follows: IV and PO pharmacokinetic studies of prodrug salts (Iab, Ibb, Icb) in the dog, with historical parent data. In kind it is in vivo, beagle dogs. Particulars: for AUC: read-out: AUCtot; for Cmax: read-out: Cmax; for concentration at 24 hr: read-out: C-24 hr. On the procedure: The IV and PO studies of Iab were conducted in a crossover fashion in three male beagle dogs (11±1.1 kg, Marshall Farms USA Inc., North Rose, N.Y.). There was a two-week washout period between the IV and PO studies.
In the IV study, Iab was infused via the cephalic vein at 1.2 mg/kg (free acid, or 0.95 mg/kg of IVa equivalent) over 5 min at a constant rate of 0.1 mL/kg/min. The concentration of the dosing solution was 2.4 mg/mL, and the dosing volume was 0.5 mL/kg. Serial blood samples were collected from the femoral artery before dosing and at 5, 10, 15, 30, 45 min, 1, 2, 4, 6, 8 and 24 hr after dosing.
In the PO study, the dogs were fasted overnight before dosing. Iab was administered by oral gavage at 6.6 mg/kg (free acid, or 5.2 mg/kg of IVa equivalent). The concentration of the dosing solution was 13.2 mg/mL, and the dosing volume was 0.5 mL/kg. Serial blood samples were collected before dosing and at 15, 30, 45 min, 1, 2, 4, 6, 8 and 24 hr after dosing.
The IV and PO studies of Ibb were conducted in male beagle dogs (10±0.78 kg, Marshall Farms USA Inc., North Rose, N.Y.). Three dogs were used in each study. Of the three dogs, two same dogs were used for both IV and PO studies. There was a two-week washout period between the IV and PO studies.
The concentration of the dosing solution was 2.6 mg/mL, and the dosing volume was 0.5 mL/kg. Serial blood samples were collected from the femoral artery before dosing and at 5, 10, 15, 30, 45 min, 1, 2, 4, 6, 8 and 24 hr after dosing.
In the PO study, the dogs were fasted overnight before dosing. […] The concentration of the dosing solution was 7.0 mg/mL, and the dosing volume was 1 mL/kg. Serial blood samples were collected before dosing and at 15, 30, 45 min, 1, 2, 4, 6, 8 and 24 hr after dosing.
The IV and PO studies of Icb were conducted in a crossover fashion in three male beagle dogs (12±2.8 kg, Marshall Farms USA Inc., North Rose, N.Y.). There was a two-week washout period between the IV and PO studies.
In the IV study, Icb was infused via the cephalic vein at 1.3 mg/kg (free acid, or 1.0 mg/kg of IVe equivalent) over 5 min at a constant rate of 0.1 mL/kg/min. The concentration of the dosing solution was 2.6 mg/mL, and the dosing volume was 0.5 mL/kg. Serial blood samples were collected from the femoral artery before dosing and at 5, 10, 15, 30, 45 min, 1, 2, 4, 6, 8 and 24 hr after dosing.
In the PO study, the dogs were fasted overnight before dosing. […] The concentration of the dosing solution was 12 mg/mL, and the dosing volume was 0.5 mL/kg. Serial blood samples were collected before dosing and at 15, 30, 45 min, 1, 2, 4, 6, 8 and 24 hr after dosing.

Data set [2] can be described thus: IV and PO pharmacokinetic studies of prodrug salts (Iab, Ibb, Icb) in the rat, with historical parent data. In kind it is in vivo, Sprague-Dawley rats. Particulars: for Cmax: read-out: Cmax. On the procedure:
All blood samples (0.3 mL) were colleted in microtainers containing K2EDTA (Becton Dickinson, Franklin Lakes, N.J.) and placed on chipped ice. After centrifugation, plasma was separated and stored at −20° C. until analysis. The mono-lysine salt of Iab (Form 3, Lot 1) was used for the pharmacokinetic studies. The dosing solutions of Iab were prepared in either sterile water (for IV administration in dogs and monkeys) or distilled water (for all other dose administration).
Male Sprague-Dawley rats (300-350 g, Hilltop Lab Animals, Inc., Scottsdale, Pa.) with cannulas implanted in the jugular vein were used. The rats were fasted overnight in the PO pharmacokinetic studies. Blood samples were collected from the jugular vein.
In the IV study, Iab was delivered at 1.4 mg/kg (free acid, or 1.1 mg/kg of IVa equivalent) as a bolus over 0.5 min (n=3).
In the PO study, Iab was administered at 7.9 mg/kg (free acid, or 6.3 mg/kg of IVa equivalent) by oral gavage (n=3). The concentration of the dosing solution was 4.0 mg/mL, and the dosing volume was 2 mL/kg.
The pharmacokinetic parameters of Iab and IVa were calculated by Non-Compartmental Analysis using the […]™ software program (version 4.0.2, InnaPhase Co., Philadelphia, Pa.). The Cmax and Tmax values were recorded directly from experimental observations. The AUC0-n and AUCtot values were calculated using the mixed log-linear trapezoidal summations. The total body clearance (Cl), mean residence time (MRT), and the steady state volume of distribution (Vss) were also calculated after intravenous administration. The absolute oral bioavailability (expressed as %) was estimated by taking the ratio of dose-normalized AUC values after oral doses to those after intravenous doses.
All blood samples (0.3 mL) were colleted in microtainers containing K2EDTA (Becton Dickinson, Franklin Lakes, N.J.) and placed on chipped ice. After centrifugation, plasma was separated and stored at −20° C. until analysis. The mono-lysine salt of Ibb (Form 3) was used for the pharmacokinetic studies. The dosing solutions of Ibb were prepared in either sterile water (for IV administration in dogs and monkeys) or distilled water (for all other dose administration).
(§1) The Cmax and Tmax values were recorded directly from experimental observations. The AUC0-n and AUCtot values were calculated using the mixed log-linear trapezoidal summations. The total body clearance (Cl), mean residence time (MRT), and the steady state volume of distribution (Vss) were also calculated after intravenous administration. The absolute oral bioavailability (expressed as %) was estimated by taking the ratio of dose-normalized AUC values after oral doses to those after intravenous doses.
In the IV study, Icb was delivered at 1.4 mg/kg (free acid, or 1.1 mg/kg of IVe equivalent) as a bolus over 0.5 min (n=3).
In the PO study, Icb was administered at 6.9 mg/kg (free acid, or 5.6 mg/kg of IVe equivalent) by oral gavage (n=3).
as §1

Where [3] appears, read: male, beagle, plasma, po, 7 mg/kg.
Where [4] appears, read: male, beagle, plasma, po, 6.05 mg/kg.
Where [5] appears, read: plasma, iv, 1 mg/kg, read-out: MRT.
The mark [6] stands for this setting: plasma, iv, 1 mg/kg, read-out: Vdss.
[7] abbreviates: plasma, po, 5 mg/kg, read-out: Bioavailability.
[8] abbreviates: plasma, po, 5 mg/kg, read-out: Tmax.

`O=C(C(=O)N1CCN(C(=O)c2ccccc2)CC1)c1cn(COP(=O)(O)O)c2c(-n3ccnn3)ncc(F)c12` [Ibb, [3-[(4-benzoylpiperazin-1-yl)(oxo)acetyl]-4-fluoro-7-(1H-1,2,3-triazol-1-yl)-1H-pyrrolo[2,3-c]pyridin-1-yl]methyl dihydrogen phosphate, L-lysine salt (1:1)]: the T1/2 in data set [1] (IV Ibb […] free acid (1.0 of IVb eqv.), mean ± SD, n = 3) came to 49.8 ± 34.8 min. Besides, the results for the prodrug detected in plasma after oral administration in data set [1] (LLQ = 5 nM) and in data set [2] (LLQ = 5 nM) were 0.034 µM and less than 10 nM, respectively. Further, the half-life was 0.83 h in data set [1] (male, beagle, plasma, after IV prodrug, analyte = label, read-out: t1/2 (hr), IV (converted)) and 0.18 h in data set [2] (male, Sprague-Dawley, plasma, after IV prodrug, analyte = label, read-out: t1/2 (hr), IV (converted)). The AUC in data set [1] (setting [3]) was found to be 0.059 µM·h. The highest concentration (Cmax) came to 34 ± 18 nM in data set [1] (setting [3]) and 8 ± 3 nM in data set [2] (male, Sprague-Dawley, plasma, po, 6.6 mg/kg). Besides, the Tmax in data set [1] (male, beagle, plasma, po, 7 mg/kg, read-out: Tmax) stood at 0.33 ± 0.14 h; in data set [2] (male, Sprague-Dawley, plasma, po, 6.6 mg/kg, read-out: Tmax), 0.25 h. Besides, the clearance came out at 27 mL/min/kg in data set [1] (male, beagle, plasma, prodrug after IV administration, read-out: CLtot (mL/min/kg), IV) and 19 mL/min/kg in data set [2] (male, Sprague-Dawley, plasma, prodrug after IV administration, read-out: CLtot (mL/min/kg), IV). For the same molecule, the Vd is 0.35 L/kg in data set [1] (male, beagle, plasma, prodrug after IV administration, read-out: Vdss (L/kg), IV) and 0.1 L/kg in data set [2] (male, Sprague-Dawley, plasma, prodrug after IV administration, read-out: Vdss (L/kg), IV).
Turning to `COc1cnc(-n2cnc(C)n2)c2[nH]cc(C(=O)C(=O)N3CCN(C(=O)c4ccccc4)CC3)c12` [IVc], the bioavailability in data set [1] (beagle, plasma, historical parent, PO 5 mg/kg, read-out: Bioavailability (%)) was 89%; in data set [1] (male, beagle, plasma, oral prodrug, read-out: Bioavailability (%) of parent from prodrug) it was 104%; in data set [1] (male, beagle, plasma, oral, 6.05 mg/kg, read-out: Bioavailability), 104%; in data set [1] (setting [7]), 89 ± 12%; in data set [2] (Sprague-Dawley, plasma, historical parent, PO 5 mg/kg, read-out: Bioavailability (%)) it was 82%; in data set [2] (male, Sprague-Dawley, plasma, oral prodrug, calculated from historical IV data of parent, read-out: Bioavailability (%) of parent from prodrug), 80%. Besides, the bioavailability was 80% in data set [2] (male, Sprague-Dawley, plasma, oral, […], read-out: Bioavailability); 82% in data set [2] (setting [7]); 80 to 122% in data set [2] (plasma, po, range over rats, dogs and monkeys, read-out: oral bioavailabilities of parent after administration of prodrug). The Tmax in data set [1] (beagle, plasma, historical parent, PO 5 mg/kg, read-out: Tmax (hr), PO) was found to be 1.3 h; in data set [1] (male, beagle, plasma, parent after oral prodrug (~5 mg/kg parent equivalent), read-out: Tmax (hr), PO), 0.58 h; in data set [1] (male, beagle, plasma, po, 6.05 mg/kg, read-out: Tmax), 0.58 ± 0.38 h; in data set [1] (setting [8]), 1.3 ± 0.58 h; in data set [2] (Sprague-Dawley, plasma, historical parent, PO 5 mg/kg, read-out: Tmax (hr), PO) it was 4 h; in data set [2] (male, Sprague-Dawley, plasma, parent after oral prodrug (~5-6 mg/kg parent equivalent), read-out: Tmax (hr), PO) it was 0.8 h. The Tmax in data set [2] (male, Sprague-Dawley, plasma, po, […], read-out: Tmax) was determined as 0.8 ± 0.3 h; in data set [2] (setting [8]) it was 4 h. In addition, the AUC in data set [1] (male, beagle, plasma, iv, 1.28 mg/kg) was 9.8 ± 3.6 µM·h; in data set [1] (setting [4]), 72 ± 27 µM·h; in data set [1] (plasma, iv, 1 mg/kg), 14 ± 2.5 µM·h; in data set [1] (plasma, po, 5 mg/kg), 63 ± 2.4 µM·h; in data set [2] (plasma, iv, 1 mg/kg, read-out: AUCtot), 27 ± 4 µM·h. Further, the concentration at 24 hr in data set [1] (male, beagle, plasma, oral, 6.05 mg/kg) was 220 ± 160 nM; in data set [1] (plasma, oral, 5 mg/kg), 150 ± 27 nM; in data set [2] (plasma, oral, 5 mg/kg, read-out: C-24 hr) it was 190 ± 48 nM. The Cmax in data set [1] (setting [4]) was 16000 ± 3900 nM; in data set [1] (plasma, po, 5 mg/kg), 9600 ± 870 nM; in data set [2] (plasma, po, 5 mg/kg) it was 13000 ± 3600 nM. Also, the MRT came out at 378 ± 114 min in data set [1] (setting [5]) and 270 ± 46.2 min in data set [2] (setting [5]). In addition, the results for the Vd in data set [1] (setting [6]) and in data set [2] (setting [6]) were 0.93 ± 0.14 L/kg and 0.36 ± 0.098 L/kg, respectively. Also, the AUCtot in data set [2] (PO IVc 5 mg/kg, historical IVc) came out at 111 ± 25 µM·h.

The record behind these values is patent US20150315218A1, “SALTS OF PRODRUGS OF PIPERAZINE AND SUBSTITUTED PIPERIDINE ANTIVIRAL AGENTS” (Bristol-Myers Squibb Company, priority 2004, published 2015).
